# Measurements reported in patent publication US20260068886A1, “COMPOSITIONS AND METHODS FOR TARGETED INHIBITION AND DEGRADATION OF PROTEINS IN AN INSECT CELL” (Oerth Bio LLC, priority 2022, published 2026).
# “Also recorded” adds a separate entry of the source.
# Legend:
# [1] = tested on: MBP-FKBP-Hibit-His6 / sfVHL:sfElonginB/C+CUL2/RBX1; experiment: in vitro ubiquitination of MBP-FKBP-Hibit-His6 by sfVHL mediated by dTAGV-1 (Western blot, anti-His6); type: biochemical; conditions: sfVHL:sfElonginB/C + human CUL2/RBX1, E1, E2, ATP, ubiquitin; range of concentrations; room temperature
# Excerpt: Lanes 1-4 and 5-8 are replicates of dose dependent dTAGV-1 dependent ubiquitination of MBP-FKBP-HIbit by sfVHL in vitro. In vitro ubiquitination is sfVHL dependent. No ubiquitination of MBP-FKBP-Hibit is observed in the absence of sfVHL (Lanes 9-16).
# To assess the ability of sfVHL to act as a CUL2 adaptor protein en route to ubiquitination, sfVHL was expressed and purified recombinantly from E. coli as a complex with sfElonginB and C. […] The intensity and number of resolved bands observed, each indicating a distinct ubiquitination pattern of MBP-FKBP-Hibit-His6, was dependent on the dTAGV-1 concentration in the preparation. […] Further, ubiquitination as indicated by the complex band pattern above the MBP-FKBP-Hibit-His6 protein, was only observed when sfVHL:sfElonginB/C+CUL2/RBX1 was present confirming that the observed ubiquitination is PROTAC and sfVHL:sfElonginB/D+CUL2/RBX1 complex dependent.
# To assess the ability of sfVHL to act as a CUL2 adaptor protein en route to ubiquitination, sfVHL was expressed and purified recombinantly from E. coli as a complex with sfElonginB and C. […] Further, ubiquitination was only observed when sfVHL:sfElonginB/C+CUL2/RBX1 was present confirming that MBP-FKBP-Hibit-His6 ubiquitination is PROTAC and sfVHL:sfElonginB/D+CUL2/RBX1 complex dependent.
# FKBP-GFP = experiment: sfVHL mediated FKBP degradation in Sf9 cells expressing FKBP-GFP-P2A-RFP (fluorescence microscopy); type: cell-based
# Protocol: FIG. 2 presents graphs showing the FKBP-GFP to RFP signal ratio when treated with dTAG-V1 (dose curve) and Bortezomib (1 or 10 μM).
# FIG. 3 presents microscopy images showing the data plotted in the graphs of FIG. 2. The images are of dTAG-V1 treated Sf9 cells expressing FKBP-GFP-P2A-RFP observed in Brightfield, green fluorescent protein and red fluorescent protein excitation wavelengths.
# Sf9 cells were seeded into individual wells of 6-well sterile tissue culture plates (2×10^6 cells per well) with 2 mL fresh Sf900 III serum-free medium prior to the assay. The Sf9 cells were transfected with a plasmid expressing FKBP-GFP-P2A-RFP. Plasmid construct (in TE buffer) was aliquoted into a sterile Eppendorf microcentrifuge tube, with fresh sSf900 III medium added to each Plasmid. Cellfectin II reagent (Life Technologies, Carlsbad, CA) was then added to the transfection mixture, and the tubes were inverted to mix and incubated at room temperature for 30 minutes. All media was removed from each well just prior to the addition of the transfection mixture. Complete transfection mixtures were added to cells dropwise using a P1000 pipette with sterile filter tips. Cells overlayed with transfection mixtures were incubated at 27° C. for 4 hours. Following 4 hours of incubation time, transfection mixtures were removed and replaced with 2 mL of fresh complete medium per well (Sf900 III). Cells were allowed to incubate at 27° C. for 96 hours to allow expression from the transfected plasmid. After construct expression, cells are harvested for further experiments. Cells were detached using a P1000 pipette with sterile filter tips. Cells were resuspended in fresh Sf900 III medium. Transfected Sf9 cells were seeded into individual wells of 96-well sterile tissue culture plates (1×10^6 cells per well) with 0.1 mL fresh Sf900 III serum-free medium. Cells were then supplemented with a 10× stock of the indicated compounds (dTAGV1, dTAG-V1-NEG, Bortezomib). Protein levels were finally analyzed using Carl Zeiss microscopy and FIJI image analysis.
structure (smiles),measurement,setting,value
CC[C@H](C(=O)N1CCCC[C@H]1C(=O)O[C@H](CCc1ccc(OC)c(OC)c1)c1ccccc1OCC(=O)NCCCCCCC(=O)N[C@H](C(=O)N1C[C@H](O)C[C@H]1C(=O)N[C@@H](C)c1ccc(-c2scnc2C)cc1)C(C)(C)C)c1cc(OC)c(OC)c(OC)c1 [dTAGV-1],ubiquitination of MBP-FKBP-Hibit-His6,[1],PROTAC mediated mono- and poly-ubiquitination of the protein; also recorded: observed in the presence of dTAGV-1 in a dose dependent manner; also recorded: FKBP substrate is ubiquitinated in vitro
CC[C@H](C(=O)N1CCCC[C@H]1C(=O)O[C@H](CCc1ccc(OC)c(OC)c1)c1ccccc1OCC(=O)NCCCCCCC(=O)N[C@H](C(=O)N1C[C@@H](O)C[C@@H]1C(=O)N[C@@H](C)c1ccc(-c2scnc2C)cc1)C(C)(C)C)c1cc(OC)c(OC)c(OC)c1 [dTAG-V1-NEG],GFP fluorescence (FKBP-GFP),FKBP-GFP; 24 hours of incubation,no decrease in green fluorescent protein is observed
CC[C@H](C(=O)N1CCCC[C@H]1C(=O)O[C@H](CCc1ccc(OC)c(OC)c1)c1ccccc1OCC(=O)NCCCCCCC(=O)N[C@H](C(=O)N1C[C@H](O)C[C@H]1C(=O)N[C@@H](C)c1ccc(-c2scnc2C)cc1)C(C)(C)C)c1cc(OC)c(OC)c(OC)c1 [dTAG-V1],GFP fluorescence (FKBP-GFP),FKBP-GFP; 24 hours of incubation,significantly decreased
same,RFP signal,FKBP-GFP; 24 hours of incubation,remains unchanged
same,concentration of optimal decrease of GFP fluorescence,FKBP-GFP; 24 hours of incubation,~100 nM
"CC(C)C[C@H](NC(=O)[C@H](Cc1ccccc1)NC(=O)c1cnccn1)B(O)O [bortezomib, Bortezomib]",effect on dTAG-V1 dependent reduction of GFP signal,FKBP-GFP; added together with dTAG-V1 (1 or 10 μM),prevents the dTAG-V1 dependent reduction of GFP signal
